Test results from patent US10414721B1, “Inhibitor of endocannabinoid cellular reuptake” (University of Bern, priority 2018, dated 2019).
“Also recorded” adds a separate entry of the source.

Key:
[1] = test system: AEA uptake in Neuro2a mouse neuroblastoma cells; assay: AEA uptake inhibition in Neuro2a cells; type: cell-based
Description: (§1) All radioactivity-based AEA and 2-AG uptake and release assays performed in U937, and HMC-1 cells were carried out using two different assay formats as previously reported. AEA and 2-AG uptake assay in Neuro2a and primary mouse cortical neurons were performed with a different method disclosed in Chicca 2017.

[2] = test system: 2-AG uptake in U937 cells; assay: 2-AG uptake inhibition in U937 cells; type: cell-based
Description: as §1

[3] = test system: 2-AG uptake in Neuro2a cells; assay: 2-AG uptake and hydrolysis in Neuro2a cells; type: cell-based, mouse
Description: as §1

MAGL = target: T1, MAGL (Mus musculus, UniProt O35678); assay: MAGL activity (ABPP and radioactivity-based hydrolytic assays); type: biochemical; settings: ABPP in mouse brain homogenate and hydrolytic assays
T1 construct: membrane preparations obtained from mouse brains; from tissue; host or cells: mouse brain membranes
T1 sequence (O35678 whole entry): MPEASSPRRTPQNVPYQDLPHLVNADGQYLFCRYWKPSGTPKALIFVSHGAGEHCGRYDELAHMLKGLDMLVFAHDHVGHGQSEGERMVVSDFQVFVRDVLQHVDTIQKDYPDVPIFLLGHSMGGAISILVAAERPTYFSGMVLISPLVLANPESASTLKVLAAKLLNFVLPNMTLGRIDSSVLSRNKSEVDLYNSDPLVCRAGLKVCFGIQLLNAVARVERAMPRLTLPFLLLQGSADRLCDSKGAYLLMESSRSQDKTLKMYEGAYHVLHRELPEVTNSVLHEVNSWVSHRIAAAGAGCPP
Description: ABPP experiments were performed using membrane preparations obtained from mouse brains as described earlier.
(§2) FAAH, ABHDs, MAGL and COX-2 activity assays were performed using cell homogenates, human recombinant enzymes and mouse, rat and pig brain homogenates as previously described.

[4] = target: fatty acid binding protein 5 (FABP5) (Homo sapiens, UniProt Q01469); assay: FABP5 binding
Sequence of fatty acid binding protein 5 (FABP5) (Q01469 whole entry, species assumed): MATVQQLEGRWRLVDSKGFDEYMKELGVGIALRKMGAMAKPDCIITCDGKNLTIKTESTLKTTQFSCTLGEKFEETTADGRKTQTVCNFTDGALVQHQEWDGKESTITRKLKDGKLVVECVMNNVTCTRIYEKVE

[5] = test system: main EC degrading enzymes (FAAH, MAGL); assay: Stability towards endocannabinoid degrading enzymes; type: in vitro ADME
Description: as §2

[6] = test system: EC efflux and release in U937 cells; assay: EC efflux and release in U937 cells; type: cell-based
Description: as §1

[7] = Cell penetration (intracellular LC-MS/MS and PAMPA); type: in vitro ADME
Excerpt: Cell penetration was further investigated by quantifying intracellular levels of WOBE437 by LC-MS/MS and measuring its physicochemical distribution in the parallel artificial membrane permeability assay (PAMPA).

CB1 receptor = CB1 receptor (Homo sapiens, UniProt P21554); assay: CB1 receptor binding assay
Sequence of CB1 receptor (P21554 whole entry): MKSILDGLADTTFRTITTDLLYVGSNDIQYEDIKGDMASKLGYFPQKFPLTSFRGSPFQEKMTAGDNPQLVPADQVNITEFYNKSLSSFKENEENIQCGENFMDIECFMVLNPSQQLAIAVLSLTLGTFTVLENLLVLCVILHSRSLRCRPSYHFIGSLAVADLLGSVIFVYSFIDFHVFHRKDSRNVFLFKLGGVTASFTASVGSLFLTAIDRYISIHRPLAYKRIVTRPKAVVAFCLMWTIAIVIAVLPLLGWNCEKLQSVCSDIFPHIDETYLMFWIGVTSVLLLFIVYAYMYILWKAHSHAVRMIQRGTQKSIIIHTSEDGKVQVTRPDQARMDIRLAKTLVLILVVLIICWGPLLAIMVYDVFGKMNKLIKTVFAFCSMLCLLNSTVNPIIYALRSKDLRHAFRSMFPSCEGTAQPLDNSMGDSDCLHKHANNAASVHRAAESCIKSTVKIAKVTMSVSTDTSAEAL
Description: CB1 and CB2 receptor binding assays [^35S]GTPγS assays were performed as previously described. WOBE437 was profiled in more detail in an extended CNS adverse drug reaction screening panel (CEREP).

BALB/c mice = assay: LPS-induced endotoxemia; type: in vivo, mouse; settings: 5 and 10 mg/kg
Description: (§3) WOBE437 was initially assessed in a battery of four individual tests typically associated with CB1 receptor activation in mice (nociception, locomotion, body temperature and cataleptic behavior), collectively referred to as the “tetrad”. Dose-response experiments identified 10 mg/kg as the lowest dose to elicit a moderate but complete tetrad in BALB/c mice upon intraperitoneal (i.p.) administration (FIGS. 3A-D). […] To assess whether the WOBE437-induced effects were CB1 receptor-mediated, mice were pre-treated with the selective antagonist/inverse agonist rimonabant (SR1). […] These experiments provided a proof-of-concept for the mechanism of action of WOBE437 as a novel “indirect CB1 receptor agonist”. In subsequent studies, the effects of WOBE437 in pain, inflammatory and anxiety models were investigated. […] Both effects were reversed by SR1.
(§4) WOBE437 and RX-055 were tested in independent laboratories, in different mouse strains and in multiple (behavioral) models for cannabimimetic, analgesic, anti-inflammatory and anxiolytic-effects in wild-type and phenotypical CB1-KO mice as described in Chicca 2017.

mice = assay: Formalin test; type: in vivo, mouse; settings: comparable to indomethacin (5 mg/kg)
Description: as §3, §4

[8] = Hot plate test after oral administration; type: in vivo, mouse; settings: male, BALB/c, mouse, in vivo; from effective doses 50 mg/kg p.o. vs 10 mg/kg i.p.; read-out: overall bioavailability compared to the i.p. administration route
Description: (§5) Acute pain was evaluated 1 h after gavage administration of WOBE437, at 10, 25, 50 and 100 mg/kg in BALB/c mice. The test was performed using a clean 54-56° C. hot plate (Thermo Scientific, USA) with a Plexiglas cylinder. The latency to show the first nociceptive response (paw lick or foot shake) was measured. In order to evaluate CB1 receptor antagonism, 5 mg/kg of rimonabant (Pharmasery AG, Switzerland) was injected intraperitoneally (i.p.) (20 μL, in DMSO) 30 min before WOBE437 administration.

BALB/c male mice [9] = assay: Hot plate test after oral administration; type: in vivo, mouse
Description: as §5

BALB/c male mice [10] = assay: Endocannabinoid and NAE levels 1 h after oral administration; type: in vivo, mouse; settings: for 2-AG level in plasma: control 16.1±2.9
Description: Male C57BL6/J or male BALB/c mice were orally administered by gavage with 10, 25, 50 or 100 mg/kg of WOBE437 (100 μL; olive oil and ethanol 8:2) using a metal feeding needle (20G, Kent Scientific, USA). The mice were sacrificed by decapitation after gavage administration. Brain, blood, liver, kidney and spleen were collected for the LC-MS/MS analyses. All tissues were briefly washed with ice cold PBS and immediately snap-frozen and stored at −80° C. Whole brain samples were dissected between the hemispheres. Blood samples were immediately centrifuged to obtain plasma, which was stored at −80° C.
Samples extractions and LC-MS/MS measurements were performed as previously described (Chicca et al., 2017). Briefly, tissues were weighted and transferred in to extraction tubes containing three steel beads and 0.1 M formic acid. Tissues were homogenized and rapidly transferred to glass tubes containing 1.5 mL of ethyl acetate:hexane (9:1) 0.1% formic acid and internal standards (ISs). Samples were centrifuged and the organic phase was recovered. After evaporation, the extracts were reconstituted in 200 μL of ACN:ddH2O (8:2). 10 μL of the solution were injected in the LC-MS/MS system using the same LC and ionization protocols as described (Chicca et al., 2017).

CCCCCCC/C=C/C=C/C(=O)NCCc1ccc(OC)c(OC)c1 [WOBE437, (2E,4E)-N-[2-(3,4-Dimethoxyphenyl)ethyl]dodeca-2,4-dienamide]
Hill slope, AEA uptake ([1]; Neuro2a cells): −0.705
inhibition at 1 µM ([1]; mouse/rat NG108-15, N2a, 2-10 min of incubation): 35%
inhibition at 1 µM ([1]; mouse/rat NG108-15, N2a, 15-20 min of incubation): 20%
IC50 ([1]; mouse/rat NG108-15, N2a, Neuro2a cells): 55 ± 18 nM
Hill slope, 2-AG uptake [2]: −0.973
IC50 ([2]; Homo sapiens, U-937, 1 μM total 2-AG): 283 ± 121 nM
reduction of overall 2-AG uptake ([3]; 5 μM, 2 and 5 min incubation): 40%
effect on 2-AG uptake and hydrolysis ([3]; Neuro2a cells, time course): only inhibited 2-AG uptake but not hydrolysis
inhibition of MAGL (MAGL): did not inhibit
binding to FABP5 [4]: no binding
stability in the presence of the main EC degrading enzymes [5]: completely stable; also recorded: not affected by the hydrolytic activity of FAAH and MAGL
inhibition of EC release [6]: 20%
effect on EC release ([6]; cells stimulated with ATP, thapsigargin and ionomycin): blocked the release of both ECs
effect on AEA efflux ([6]; pre-loaded U937 cells): inhibited the efflux of AEA
cell membrane penetration [7]: does not significantly penetrate cell membranes
Ki (CB1 receptor): 17000 nM
effect in LPS-induced endotoxemia (BALB/c mice): protective effects
inflammatory pain and paw thickness (mice): reduced inflammatory pain and paw thickness
bioavailability [8]: 20%
increase of pain threshold vs vehicle (BALB/c male mice [9]; 50 mg/kg p.o.): 61.7%
pain threshold (latency) (BALB/c male mice [9]; 50 mg/kg p.o., vehicle 5.8±0.9 s): 9.4 ± 1.9 s
pain threshold (latency) (BALB/c male mice [9]; 100 mg/kg p.o.): 11.7 ± 2.6 s
ED50 (BALB/c male mice [9]; Mus musculus, po, hot plate, read-out: estimated effective dose (ED50)): 42.5 ± 3.9 mg/kg
minimum dose to significantly increase pain threshold (BALB/c male mice [9]; p.o., hot plate): 50 mg/kg
antinociceptive effect after rimonabant pre-treatment (BALB/c male mice [9]; rimonabant 5 mg/kg i.p.): completely abolished
2-AG level in plasma (BALB/c male mice [10]; 25 mg/kg p.o.): 21.4 ± 4.5 pmol/mL
reduction of AEA concentration in plasma (BALB/c male mice [10]; 50 mg/kg p.o.): 23%
2-AG levels in somatosensory cortex (BALB/c male mice [10]; 50 mg/kg p.o., 1 h): no changes
AEA levels in somatosensory cortex (BALB/c male mice [10]; 50 mg/kg p.o., 1 h): significant increase
AEA concentration in plasma (BALB/c male mice [10]; 50 mg/kg p.o., control 2.6±0.2): 2.2 ± 0.3 pmol/mL
2-AG concentration in total brain (BALB/c male mice [10]; 50 mg/kg p.o., control 10.8±2.6): 13.9 ± 2.6 nmol/g
2-AG level in plasma (BALB/c male mice [10]; 50 mg/kg p.o.): 22.6 ± 4.8 pmol/mL
2-AG level in plasma (BALB/c male mice [10]; 100 mg/kg p.o.): 23.8 ± 5.7 pmol/mL
increase of 2-AG levels in plasma (BALB/c male mice [10]; 25, 50 and 100 mg/kg p.o.): 40%
AEA and 2-AG levels in total brain (BALB/c male mice [10]; p.o., 1 h): tendency to increase
levels of N-acylethanolamines other than AEA (BALB/c male mice [10]; somatosensory cortex, total brain or plasma): No changes
